The record followed here is patent US20100075978A1, “SULFONAMIDE DERIVATIVES AS BRADYKININ ANTAGONISTS” (priority 2006, published 2010).

Test [1] concerns the target T1, recombinant human B1 receptors (Homo sapiens, UniProt P46663).
T1 construct: host or cells: CHO (CHO-B1)
T1 sequence (P46663 1-353): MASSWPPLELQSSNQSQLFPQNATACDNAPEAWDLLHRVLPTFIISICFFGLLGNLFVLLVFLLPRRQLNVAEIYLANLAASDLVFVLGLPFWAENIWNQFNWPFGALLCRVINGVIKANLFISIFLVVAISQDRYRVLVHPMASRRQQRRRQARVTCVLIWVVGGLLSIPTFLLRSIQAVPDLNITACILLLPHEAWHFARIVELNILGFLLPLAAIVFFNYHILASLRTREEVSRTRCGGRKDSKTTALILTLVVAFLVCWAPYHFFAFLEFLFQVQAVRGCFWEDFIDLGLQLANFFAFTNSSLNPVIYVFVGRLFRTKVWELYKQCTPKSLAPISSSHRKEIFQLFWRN
In words: Functional assay: cytosolic calcium ion concentration measured with plate reader fluorimeter in CHO-B1 cells, agonist LysDABK. In kind it is cell-based. To be noted: CHO-B1 cells, LysDABK at EC80, [Ca2+]i; read-out: B1 func. On the procedure: Assessment of Antagonist Potency at B1 and B2 Receptors In Vitro by Measurement of Cytosolic Calcium Ion Concentration with a Plate Reader Fluorimeter in Cells Expressing Recombinant Human B1 or B2 Receptors
Chinese hamster ovary (CHO) cells stably expressing recombinant human B1 (CHO-B1, Euroscreen) or B2 (CHO-B2, Perkin-Elmer) receptors were cultured in Dulbecco's Modified Eagle's Medium (DMEM) containing 10% Fetal Calf Serum (FCS), 100 U/ml penicillin, 0.1 mg/ml streptomycin, 0.25 μg/ml amphotericin B, 1% Minimum Essential Medium Eagle (MEM), non essential amino acid solution, 600 μg/ml G418, 1% pyruvate (for the B2 cell line). Cells were kept at 37° C. in a humidified incubator in an atmosphere of 5% CO2/95% air and were passaged 1:4 three times a week. Cells were plated at 1.5-2.5×10^4 cell/well on standard 96-well microplates, measurements of cytosolic calcium ion concentration ([Ca^2+]i) were carried out 1-2 days after cell plating.
Measurements of [Ca^2+]i were carried out on CHO-B1 and CHO-B2 cells stably expressing human B1 and B2 receptors, respectively. Cells were grown in standard 96-well microplates and before the measurement were loaded with a fluorescent Ca^2+-sensitive dye, fluo-4/AM (2 μM): after removing the culture medium the dye was added to the cells (dissolved in assay buffer: 145 mM NaCl, 5 mM KCl, 2 mM MgCl2, 2 mM CaCl2, 10 mM HEPES, 20 mM D-glucose, 2 mM probenecid, 100 μl/well) and cells were incubated at 37° C. in a humidified incubator in an atmosphere of 5% CO2/95% air for 40-120 min. To stop dye loading cells were washed twice with assay buffer. After washing, various concentrations of the test compounds (diluted in extracellular medium from a DMSO stock solution, final DMSO concentration was <0.1%) or buffer were added to each well depending on the experimental setup. After incubation at 37° C. for 20-25 min. baseline and agonist-evoked changes of [Ca^2+]i were measured column by column with a plate reader fluorimeter (Fluoroskan Ascent, Labsystems). Excitation and detection of emission was carried out from the bottom of the plate. Filters used for Fluo-4: excitation filter—485 nm, emission filter—538 nm. The whole measurement process was performed at 37° C. and was controlled by custom software. Inhibitory potency of the test compounds was assessed by measuring the reduction in the agonist-evoked [Ca^2]i-elevation in the presence of different concentrations of the compounds. The agonists were LysDABK for CHO-B1, and bradykinin for CHO-B2 cells. Agonists were applied at an EC80 concentration, the EC80-values were derived from daily determined dose-response curves. Fluorescence data were expressed as ΔF/F (fluorescence change normalized to baseline). All treatments on a single plate were measured in multiple wells. Data from all wells with the same treatment were averaged and the average values were used for analysis. Inhibitory potency of a compound at a single concentration point was expressed as percent inhibition of the control agonist response. Sigmoidal concentration-inhibition curves were fitted to the data (derived from at least three independent experiments) and IC50-values were determined as the concentration that produces half of the maximal inhibition caused by the compound.

Test [2] deals with T2, human recombinant bradykinin B1 receptor (Homo sapiens, UniProt P46663).
T2 construct: purchased Euroscreen ES-091; host or cells: CHO cells
T2 sequence (P46663 1-353): T1 sequence (P46663 1-353)
In words: Human recombinant bradykinin B1 receptor binding. The settings on record: radioligand [3H]-[Des-Arg10] Kallidin, CHO cell membranes; read-out: B1 binding. The protocol: 1. Human Recombinant Bradykinin B1 Receptor Binding
Binding assays were carried out on human recombinant bradykinin) receptors (expressed in CHO cells) according to the Euroscreen Technical Data Sheet (Cat.No.:ES-091). 20 μg protein/tube was incubated with [3,4-prolyl-3,4-^3H(N)]-[Des-Arg^10] Kallidin as radioligand. Non specific binding was determined in the presence of 10 μM Lys-des-Arg^9-Bradykinin. The final incubation volume was 250 μl. Samples were incubated for 15 min. at 25° C. then were rapidly vacuum filtered through GF/B filters presoaked for at least 1 h in 0.5% PEI. Radioactivity was determined by liquid scintillation spectroscopy.

Where a name gives a salt, the structure may show the parent alone. Bounds are passed on as bounds.

`O=C(CCNC(=O)c1ccc(S(=O)(=O)Nc2ccccc2Oc2ccc(Cl)cc2Cl)cc1)NC1CCNCC1` [Example 33, 4-[2-(2,4-Dichloro-phenoxy)-phenylsulfamoyl]-N-[2-(piperidin-4-ylcarbamoyl)-ethyl]-benzamide acetate]: the IC50 in test [1] was in the range of 20 to 100 nM. Further, the Ki in test [2] lay in the range of 20 to 100 nM.

For the compound `Cc1cccc(N2CCN(CCNC(=O)c3ccc(S(=O)(=O)Nc4ccccc4Oc4ccc(Cl)cc4Cl)cc3)CC2)n1` [Example 36, 4-[2-(2,4-Dichloro-phenoxy)-phenylsulfamoyl]-N-{2-[4-(6-methyl-pyridin-2-yl)-piperazin-1-yl]-ethyl}-benzamide], the IC50 in test [1] is 20 to 100 nM. Moreover, the Ki in test [2] was under 20 nM.

`O=C(CCNC(=O)c1ccc(S(=O)(=O)Nc2ccccc2Oc2ccc(Cl)cc2Cl)cc1)NCC1CCNCC1` [Example 37, 4-[2-(2,4-Dichloro-phenoxy)-phenylsulfamoyl]-N-{2-[(piperidin-4-ylmethyl)-carbamoyl]-ethyl}-benzamide acetate/hydrochloride mixed salt]: in test [1], the IC50 fell in the range of 20 to 100 nM. The Ki in test [2] was in the range of 20 to 100 nM.

Consider `Cc1ccnc(N2CCN(CCNC(=O)c3ccc(S(=O)(=O)Nc4ccccc4Oc4ccc(Cl)cc4Cl)cc3)CC2)c1` [Example 54, 4-[2-(2,4-Dichloro-phenoxy)-phenylsulfamoyl]-N-{2-[4-(4-methyl-pyridin-2-yl)-piperazin-1-yl]-ethyl}-benzamide], for which the IC50 in test [1] was 20 to 100 nM. Moreover, the Ki in test [2] was 20 to 100 nM.

For the compound `O=C(CCNC(=O)c1ccc(S(=O)(=O)Nc2ccccc2Oc2ccc(Cl)cc2Cl)cc1)NCCC1CCNCC1` [Example 56, 4-[2-(2,4-Dichloro-phenoxy)-phenylsulfamoyl]-N-[2-(2-piperidin-4-yl-ethylcarbamoyl)-ethyl]-benzamide hydrochloride], the IC50 in test [1] was 20 to 100 nM. Also, in test [2], the Ki was under 20 nM.

Take `O=C(Nc1ccc(N2CCC(N3CCCCC3)CC2)cc1)c1ccc(S(=O)(=O)Nc2cc(F)ccc2Oc2ccc(Br)cc2)cc1` [Example 58, N-(4-[1,4′]Bipiperidinyl-1′-yl-phenyl)-4-[2-(4-bromo-phenoxy)-5-fluoro-phenylsulfamoyl]-benzamide]: the IC50 in test [1] is under 20 nM. Further, the Ki in test [2] was under 20 nM.

For the compound `O=C(NCCC(=O)N1CCC(N2CCCCC2)CC1)c1ccc(S(=O)(=O)Nc2ccccc2Oc2ccc(Cl)cc2Cl)cc1` [Example 62, N-(3-[1,4′]Bipiperidinyl-1′-yl-3-oxo-propyl)-4-[2-(2,4-dichloro-phenoxy)-phenylsulfamoyl]-benzamide trifluoroacetate], the IC50 in test [1] was under 20 nM. In addition, the Ki in test [2] is under 20 nM.

Consider `O=C(N[C@H]1CC[C@H](CCN2CCCC2)CC1)c1ccc(S(=O)(=O)Nc2ccccc2Oc2ccc(Cl)c(Cl)c2)cc1` [Example 64, trans-4-[2-(3,4-Dichloro-phenoxy)-phenylsulfamoyl]-N-[4-(2-pyrrolidin-1-yl-ethyl)-cyclohexyl]-benzamide], for which the IC50 in test [1] fell in the range of 20 to 100 nM. The Ki in test [2] was 20 to 100 nM.

`O=C(NCCCN1CCCCC1)c1ccc(S(=O)(=O)Nc2ccccc2Oc2ccc(Cl)cc2Cl)cc1` [Example 76, 4-[2-(2,4-Dichloro-phenoxy)-phenylsulfamoyl]-N-(3-piperidin-1-yl-propyl)-benzamide]: the IC50 in test [1] lay within 20 to 100 nM. The Ki in test [2] was 20 to 100 nM.

For `O=C(c1ccc(S(=O)(=O)Nc2ccccc2Oc2ccc(Cl)c(Cl)c2)cc1)N1CCN(CCCN2CCCCC2)CC1` [Example 87, N-[2-(3,4-Dichloro-phenoxy)-phenyl]-4-[4-(3-piperidin-1-yl-propyl)-piperazine-1-carbonyl]-benzenesulfonamide], the IC50 in test [1] fell in the range of 100 to 500 nM. In addition, the Ki in test [2] was in the range of 100 to 500 nM.

With `O=C(NCCN1CCN(Cc2ccccn2)CC1)c1ccc(S(=O)(=O)Nc2ccccc2Oc2ccc(Br)cc2)cc1` [Example 99, 4-[2-(4-Bromo-phenoxy)-phenylsulfamoyl]-N-[2-(4-pyridin-2-ylmethyl-piperazin-1-yl)-ethyl]-benzamide], the IC50 in test [1] was 20 to 100 nM. In addition, the Ki in test [2] was 20 to 100 nM.

Regarding `O=C(NCCCCC1CCNCC1)c1ccc(S(=O)(=O)Nc2ccccc2Oc2ccc(Br)cc2)cc1` [Example 101, 4-[2-(4-Bromo-phenoxy)-phenylsulfamoyl]-N-(4-piperidin-4-yl-butyl)-benzamide hydrochloride], the IC50 in test [1] was 20 to 100 nM. Further, in test [2], the Ki is 20 to 100 nM.

Regarding `O=C(NCCCN1CCC(N2CCCCC2)CC1)c1ccc(S(=O)(=O)Nc2cc(F)ccc2Oc2ccc(Br)cc2)cc1` [Example 102, N-(3-[1,4′]Bipiperidinyl-1′-yl-propyl)-4-[2-(4-bromo-phenoxy)-5-fluoro-phenylsulfamoyl]-benzamide], the IC50 in test [1] is under 20 nM. In test [2], the Ki was under 20 nM.

On to `O=C(NCCCN1CCN(c2ccncc2)CC1)c1ccc(S(=O)(=O)Nc2cc(F)ccc2Oc2ccc(Br)cc2)cc1` [Example 105, 4-[2-(4-Bromo-phenoxy)-5-fluoro-phenylsulfamoyl]-N-[3-(4-pyridin-4-yl-piperazin-1-yl)-propyl]-benzamide], for which the IC50 in test [1] is under 20 nM. In addition, the Ki in test [2] is under 20 nM.

`O=C(NCCCN1CCC(N2CCCCC2)CC1)c1ccc(S(=O)(=O)Nc2ccccc2Oc2ccc(Br)cc2)cc1` [Example 111, N-(3-[1,4′]Bipiperidinyl-1′-yl-propyl)-4-[2-(4-bromo-phenoxy)-phenylsulfamoyl]-benzamide]: the IC50 in test [1] was under 20 nM. In addition, in test [2], the Ki is under 20 nM.

For the compound `O=C(NCCCN1CCN(c2ccncc2)CC1)c1ccc(S(=O)(=O)Nc2ccccc2Oc2ccc(Br)cc2)cc1` [Example 114, 4-[2-(4-Bromo-phenoxy)-phenylsulfamoyl]-N-[3-(4-pyridin-4-yl-piperazin-1-yl)-propyl]-benzamide], in test [1], the IC50 was under 20 nM. In test [2], the Ki is under 20 nM.

Take `O=C(NCCCN1CCC(N2CCCCC2)CC1)c1ccc(S(=O)(=O)Nc2ccccc2Oc2ccc(F)cc2Cl)cc1` [Example 116, N-(3-[1,4′]Bipiperidinyl-1′-yl-propyl)-4-[2-(2-chloro-4-fluoro-phenoxy)-phenylsulfamoyl]-benzamide]: the IC50 in test [1] is under 20 nM. Besides, in test [2], the Ki was under 20 nM.

Turning to `O=C(N[C@H]1CC[C@H](CCN2CCCC2)CC1)c1ccc(S(=O)(=O)Nc2ccccc2Oc2ccc(F)cc2Cl)cc1` [Example 121, trans-4-[2-(2-Chloro-4-fluoro-phenoxy)-phenylsulfamoyl]-N-[4-(2-pyrrolidin-1-yl-ethyl)-cyclohexyl]-benzamide], the IC50 in test [1] lay within 20 to 100 nM. In addition, the Ki in test [2] fell in the range of 20 to 100 nM.

For `O=C(Nc1ccc(N2CCC(N3CCCCC3)CC2)cc1)c1ccc(S(=O)(=O)Nc2ccccc2Oc2ccc(C(F)(F)F)cc2)cc1` [Example 127, N-(4-[1,4′]Bipiperidinyl-1′-yl-phenyl)-4-[2-(4-trifluoromethyl-phenoxy)-phenylsulfamoyl]-benzamide], the IC50 in test [1] is under 20 nM. Also, the Ki in test [2] lay in the range of 20 to 100 nM.
